Source: ChEMBL document CHEMBL4406844, “Single-molecule chemiluminescent photosensitizer for a self-activating and tumor-selective photodynamic therapy of cancer” (Eur J Med Chem, 2019)
Active and inactive are the calls of the source. The rule behind the calls is not given here.

Columns and labels:
[1] = Induction of singlet production in methanol in presence of potassium superoxide using chemiluminescent substrate by spectrofluorimetry; type: functional
[2] = Induction of singlet production in methanol in presence of potassium superoxide using chemiluminescent substrate incubated for 30 mins in N2-bubbling by spectrofluorimetry relative to control; type: functional
[3] = Induction of singlet production in methanol in presence of potassium superoxide using chemiluminescent substrate incubated for 30 mins in liquid nitrogen temperature by spectrofluorimetry; type: functional
[4] = Induction of singlet oxygen production in methanol assessed as ABDA florescence quenching in presence of potassium superoxide by spectrofluorimetry; type: functional
PC-3 [5] = assay: Cytotoxicity against human PC3 cells assessed as reduction in cell viability at >75 uM incubated for 24 hrs by MTT assay relative to control; type: functional
MCF7 [6] = assay: Cytotoxicity against human MCF7 cells assessed as reduction in cell viability at 0.1 uM incubated for 24 hrs by MTT assay; type: functional, cell-based
MCF-10A = assay: Cytotoxicity against human MCF10A cells assessed as reduction in cell viability at 0.1 to 100 uM incubated for 24 hrs by MTT assay; type: cell-based
MCF7 [7] = assay: Cytotoxicity against human MCF7 cells assessed as reduction in cell viability at 0.1 to 100 uM incubated for 24 hrs by MTT assay; type: functional, cell-based
[8] = Induction of singlet production in acetate buffer using chemiluminescent substrate by spectrofluorimetry; type: functional
[9] = Induction of singlet oxygen production in methanol assessed as ABDA florescence quenching by spectrofluorimetry; type: functional
PC-3 [10] = assay: Cytotoxicity against human PC3 cells assessed as reduction in cell viability at 0.1 to 100 uM incubated for 24 hrs by MTT assay; type: functional, cell-based
[11] = Induction of singlet oxygen production in acetate buffer assessed as ABDA florescence quenching by spectrofluorimetry; type: functional

Row | SMILES | Activity [2] | Activity (MCF7 [7]) | Activity [8] | Activity (PC-3 [10]) | further results
1 | Cc1nc2c[nH]c(-c3ccc(Br)cc3)cn-2c1=O | Active |  |  |  | Activity [1]: Active; Activity [3]: Active; Activity [4]: Active; Activity (PC-3 [5]): >50%; Activity (MCF7 [6]): Active; Activity (MCF-10A): Non-Toxic
2 | CC/C(=C(\c1ccccc1)c1ccc(OCCN(C)C)cc1)c1ccccc1 |  | Active |  |  | 
3 | O=c1c(Cc2ccc(O)cc2)nc2c(Cc3ccccc3)[nH]c(-c3ccc(O)cc3)cn1-2 | inactive | inactive | Active | Active | Activity [9]: inactive
4 | CN(C)C(=N)NC(=N)N |  |  |  | Active | 
5 | CC(=O)Nc1cnc(Br)cn1 |  |  | Active |  | Activity [11]: Active
